Assay results: the NIST ThermoML archive (doi:10.1016/j.jct.2016.06.016)

Assay: refractive index (Na D-line) (dimensionless); xn = mol fraction of the nth substance listed
Conditions: 100 kPa, Liquid, Standard Abbe refractometry

CCOC(=O)CCC(=O)OCC [diethyl butanedioate] + CCCO
refractive index
Conditions	x1 = 0.1	x1 = 0.2	x1 = 0.2999	x1 = 0.3998	x1 = 0.4999	x1 = 0.6001	x1 = 0.7001	x1 = 0.8002	x1 = 0.8997	x1 = 1
288.15 K	1.394	1.3993	1.4037	1.4075	1.4107	1.4135	1.416	1.4182	1.4201	1.4217
293.15 K	1.3918	1.3971	1.4016	1.4053	1.4085	1.4113	1.4138	1.416	1.4179	1.4195
298.15 K	1.3897	1.395	1.3994	1.4031	1.4063	1.4091	1.4116	1.4138	1.4157	1.4173
303.15 K	1.3876	1.3928	1.3972	1.4009	1.4041	1.4069	1.4094	1.4116	1.4135	1.4151
308.15 K	1.3854	1.3906	1.3949	1.3986	1.4018	1.4047	1.4072	1.4094	1.4113	1.4129
313.15 K	1.3831	1.3883	1.3927	1.3964	1.3996	1.4025	1.4049	1.4072	1.4091	1.4108
318.15 K	1.3809	1.3861	1.3905	1.3942	1.3974	1.4002	1.4027	1.4049	1.4069	1.4088
323.15 K	1.3787	1.3839	1.3882	1.392	1.3952	1.398	1.4005	1.4027	1.4048	1.4067

CCOC(=O)CCC(=O)OCC [diethyl butanedioate] + CCCCO
refractive index
Conditions	x1 = 0.1	x1 = 0.2001	x1 = 0.3	x1 = 0.3999	x1 = 0.5	x1 = 0.6001	x1 = 0.6998	x1 = 0.7999	x1 = 0.8997	x1 = 1
288.15 K	1.4042	1.4069	1.4094	1.4116	1.4137	1.4156	1.4173	1.419	1.4204	1.4217
293.15 K	1.4021	1.4048	1.4072	1.4094	1.4115	1.4134	1.4151	1.4168	1.4182	1.4195
298.15 K	1.4	1.4027	1.405	1.4073	1.4093	1.4112	1.4129	1.4146	1.416	1.4173
303.15 K	1.3979	1.4005	1.4029	1.4051	1.4071	1.409	1.4107	1.4123	1.4138	1.4151
308.15 K	1.3958	1.3983	1.4007	1.4029	1.4049	1.4068	1.4085	1.4101	1.4116	1.4129
313.15 K	1.3936	1.3962	1.3985	1.4007	1.4027	1.4046	1.4063	1.4079	1.4094	1.4108
318.15 K	1.3915	1.394	1.3963	1.3985	1.4005	1.4024	1.4041	1.4058	1.4073	1.4088
323.15 K	1.3894	1.3918	1.3942	1.3963	1.3983	1.4002	1.402	1.4036	1.4052	1.4067

CCOC(=O)CCC(=O)OCC [diethyl butanedioate] + CCCCCCO
refractive index
Conditions	x1 = 0.0999	x1 = 0.2	x1 = 0.3001	x1 = 0.4	x1 = 0.4999	x1 = 0.6	x1 = 0.7002	x1 = 0.7999	x1 = 0.9	x1 = 1
288.15 K	1.4192	1.419	1.4189	1.4191	1.4193	1.4197	1.4202	1.4207	1.4212	1.4217
293.15 K	1.4172	1.4169	1.4168	1.417	1.4172	1.4176	1.418	1.4185	1.419	1.4195
298.15 K	1.4152	1.4148	1.4147	1.4148	1.415	1.4154	1.4158	1.4163	1.4168	1.4173
303.15 K	1.4131	1.4127	1.4126	1.4127	1.4129	1.4133	1.4136	1.4142	1.4147	1.4151
308.15 K	1.4111	1.4107	1.4105	1.4106	1.4108	1.4111	1.4115	1.412	1.4125	1.4129
313.15 K	1.409	1.4086	1.4084	1.4084	1.4086	1.4089	1.4093	1.4098	1.4103	1.4108
318.15 K	1.407	1.4065	1.4063	1.4063	1.4064	1.4068	1.4071	1.4076	1.4082	1.4088
323.15 K	1.4049	1.4044	1.4042	1.4042	1.4043	1.4046	1.405	1.4054	1.406	1.4067
